These are literature values, as cited in paper PMC6595297 (British Journal of Clinical Pharmacology, 2019).

The series concerns human P‐gp transport function. As to conditions: cited from earlier work.

`OC(Cn1cncn1)(Cn1cncn1)c1ccc(F)cc1F` [fluconazole]: the “Inhibition of P‐gp (classification)” value was “devoid of P‐gp inhibitory effect”.

Turning to `CCC(C)n1ncn(-c2ccc(N3CCN(c4ccc(OCC5COC(Cn6cncn6)(c6ccc(Cl)cc6Cl)O5)cc4)CC3)cc2)c1=O` (centres unmarked) [itraconazole], the “Inhibition of P‐gp (classification)” value is “strong dual inhibitor of CYP3A and P‐gp”.
